Assay results reported in patent US20260070929A1, “METHODS AND COMPOSITIONS FOR MODULATING KRAS(G12D)” (Ranok Therapeutics (Hangzhou) Co. LTD., priority 2022, published 2026).
Read-outs that look alike come from different tables or passages of the source.

How the values were obtained:
KRAS(G12D)/SOS1 = molecular target: T1, KRAS(G12D)/SOS1 (Homo sapiens, UniProt P01116, G12D); test: KRAS(G12D)/SOS1 homogeneous time-resolved fluorescence (HTRF) assay; format: binding; conditions: absence of GTP; 4° C., 3 hr
T1 construct: purchased Cisbio 63ADK000CB17PEH
T1 sequence (P01116 1-188 isoform P01116-2 G12D): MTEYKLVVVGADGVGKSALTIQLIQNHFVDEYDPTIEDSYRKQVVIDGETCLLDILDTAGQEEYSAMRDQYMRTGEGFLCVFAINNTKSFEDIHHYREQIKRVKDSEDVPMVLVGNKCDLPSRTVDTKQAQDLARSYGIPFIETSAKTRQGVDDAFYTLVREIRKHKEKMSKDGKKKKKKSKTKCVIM
Method in brief: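 Disruption of the KRAS(G12D)/SOS1 pairing, in the absence of GTP, was read by time-resolved FRET after a 3 hr sealed incubation at 4 °C. Test compounds spanned 20 µM down to 1.02 nM in 3-fold steps. IC50 values correspond to half-maximal inhibition.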

[1] = system: AGS gastric carcinoma cells [heterozygous G12D]; test: Cancer cell line proliferation (CellTiter-Glo), AGS; format: cell-based; conditions: 72 hr treatment, read-out: AGS CTG (EC50)
Method in brief: (§1)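 First, plate 4,000 cells per well and incubate 72 hr (37° C., 5% CO2). Next, add compound from a 3-fold dilution series spanning 20 μM to 1.02 nM, keeping DMSO at 0.5%. Then incubate another 72 hr, add CellTiter-Glo, and derive EC50.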

[2] = system: A-427 lung carcinoma cells [heterozygous G12D]; test: Cancer cell line proliferation (CellTiter-Glo), A-427; format: cell-based; conditions: A-427 cells, 72 hr treatment, read-out: A427 CTG (EC50)
Method in brief: as §1

[3] = system: ASPC1 pancreatic adenocarcinoma cells [homozygous G12D]; test: Cancer cell line proliferation (CellTiter-Glo), ASPC1; format: cell-based; conditions: 72 hr treatment, read-out: ASPC-1 CTG (EC50)
Method in brief: as §1

[4] = system: SW1990 pancreatic adenocarcinoma cells [homozygous G12D]; test: Cancer cell line proliferation (CellTiter-Glo), SW1990; format: cell-based; conditions: 72 hr treatment, read-out: SW1990 CTG (EC50)
Method: The following cancer cell lines were employed: AGS gastric carcinoma [heterozygous G12D](ATCC, CRL-1739); A-427 lung carcinoma [heterozygous G12D](ATCC, HTB-53); ASPC1 pancreatic adenocarcinoma [homozygous G12D](ATCC, CRL-1682) and SW1990 pancreatic adenocarcinoma [homozygous G12D](ATCC CRL-2172). Cell lines were cultured essentially according to ATCC recommendations.
AGS, A-427, ASPC1, SW1990, and GP2D cells were plated in 96-well tissue culture plates at 4,000 cells/well and incubated at 37° C./5% CO2 for 72 hr in 100 μl of media. 3-fold serial dilutions of each test compound were prepared ranging from 20 μM to 1.02 nM. Each cell line was then treated with test compounds at various concentrations with a final concentration of 0.5% DMSO/well, and then incubated at 37° C./5% CO2 for 72 hr. 100 µl of CellTiter-Glo® Reagent (Promega Corporation, Madison, WI) was added to each well and processed according manufacturer's protocol. Results were analyzed and EC50 values were calculated in GraphPad 7 software.

| Compound | IC50 (KRAS(G12D)/SOS1) | EC50 ([1]; Homo sapiens) | EC50 ([2]; Homo sapiens) | EC50 ([3]; Homo sapiens, ASPC1, 72 h) | EC50 ([4]; Homo sapiens) | EC50 [1] | EC50 [2] | EC50 [3] | EC50 [4] |
| --- | --- | --- | --- | --- | --- | --- | --- | --- | --- |
| CC(C)c1cc(C(=O)N2Cc3ccc(CN4CCN([C@H]5C[C@@H](COc6nc(N7CC8CCC(C7)N8)c7cnc(-c8cc(O)cc9ccccc89)c(F)c7n6)N(C)C5)CC4)cc3C2)c(O)cc1O [Compound 25] | < 0.1 µM | < 0.1 µM | 0.1 to 1 µM | > 1 µM | < 0.1 µM | – | – | – | – |
| CC(C)c1cc(C(=O)N2Cc3ccc(CN4CCN([C@H]5C[C@@H](COc6nc(N7CC8CCC(C7)N8)c7cnc(-c8cccc9ccccc89)c(F)c7n6)N(C)C5)CC4)cc3C2)c(O)cc1O [Compound 35] | > 1 µM | 0.1 to 1 µM | 0.1 to 1 µM | 0.1 to 1 µM | 0.1 to 1 µM | – | – | – | – |
| C#Cc1cccc2cccc(-c3ncc4c(N5CC6CCC(C5)N6)nc(OCC5(CN6CCN(Cc7ccc(-n8c(C(=O)NCC(F)(F)F)nnc8-c8cc(C(C)C)c(O)cc8O)cc7)CC6)CC5)nc4c3F)c12 [Compound 54] | < 0.1 µM | < 0.1 µM | 0.1 to 1 µM | 0.1 to 1 µM | < 0.1 µM | – | – | – | – |
| C#Cc1cccc2cccc(-c3ncc4c(N5CC6CCC(C5)N6)nc(OCC5(CN6CCN(Cc7ccc(-n8c(C(=O)NC(C)C(F)(F)F)nnc8-c8cc(C(C)C)c(O)cc8O)cc7)CC6)CC5)nc4c3F)c12 (stereo not shown) [Compound 55] | 0.1 to 1 µM | 0.1 to 1 µM | 0.1 to 1 µM | 0.1 to 1 µM | 0.1 to 1 µM | – | – | – | – |
| CCNC(=O)c1nnc(-c2cc(C(C)C)c(O)cc2O)n1-c1ccc(CN2CCC(C(=O)N3CCN([C@H]4C[C@@H](COc5nc(N6CC7CCC(C6)N7)c6cnc(-c7cccc(C)c7C)c(F)c6n5)N(C)C4)CC3)CC2)cc1 [Compound 56] | > 1 µM | < 0.1 µM | 0.1 to 1 µM | 0.1 to 1 µM | < 0.1 µM | – | – | – | – |
| CC(C)c1cc(C(=O)N2Cc3ccc(CN4CCN([C@H]5C[C@@H](COc6nc(N7CC8CCC(C7)N8)c7cnc(-c8ccccc8C(F)(F)F)c(F)c7n6)N(C)C5)CC4)cc3C2)c(O)cc1O [Compound 58] | > 1 µM | < 0.1 µM | < 0.1 µM | 0.1 to 1 µM | 0.1 to 1 µM | – | – | – | – |
| COc1cccc2cccc(-c3ncc4c(N5CC6CCC(C5)N6)nc(OC[C@@H]5C[C@H](N6CCN(Cc7ccc8c(c7)CN(C(=O)c7cc(C(C)C)c(O)cc7O)C8)CC6)CN5C)nc4c3F)c12 [Compound 102] | 0.1 to 1 µM | 0.1 to 1 µM | 0.1 to 1 µM | 0.1 to 1 µM | 0.1 to 1 µM | – | – | – | – |
| CCNC(=O)c1nnc(-c2cc(C(C)C)c(O)cc2O)n1-c1ccc(CN2CCN([C@H]3C[C@@H](COc4nc(N5CC6CCC(C5)N6)c5cnc(-c6cccc7cccc(OC)c67)c(F)c5n4)N(C)C3)CC2)cc1 [Compound 103] | > 1 µM | < 0.1 µM | 0.1 to 1 µM | 0.1 to 1 µM | 0.1 to 1 µM | – | – | – | – |
| Cc1cccc2cccc(-c3ncc4c(N5CC6CCC(C5)N6)nc(OC[C@@H]5CC[C@H](CN6CCN(Cc7ccc(-n8c(C(=O)NC(C)C(F)(F)F)nnc8-c8cc(C(C)C)c(O)cc8O)cc7)CC6)N5C)nc4c3F)c12 (stereo partly shown) [Compound 107] | 0.1 to 1 µM | 0.1 to 1 µM | 0.1 to 1 µM | 0.1 to 1 µM | 0.1 to 1 µM | – | – | – | – |
| C#Cc1cccc2cc(O)cc(-c3ncc4c(N5CC6CCC(C5)N6)nc(OCC5(CN6CCN(CC7CCN(Cc8ccc9c(c8)CN(C(=O)c8cc(C(C)C)c(O)cc8O)C9)CC7)CC6)CC5)nc4c3F)c12 [Compound 117] | – | < 0.1 µM | 0.1 to 1 µM | 0.1 to 1 µM | < 0.1 µM | – | – | – | – |
| C#Cc1cccc2cc(O)cc(-c3ncc4c(N5CC6CCC(C5)N6)nc(OCC5(CN6CCC(C(=O)N7CCN(Cc8ccc(-n9c(C(=O)NC(C)C(F)(F)F)nnc9-c9cc(C(C)C)c(O)cc9O)cc8)CC7)CC6)CC5)nc4c3F)c12 (stereo not shown) [Compound 120] | < 0.1 µM | < 0.1 µM | 0.1 to 1 µM | 0.1 to 1 µM | < 0.1 µM | – | – | – | – |
| C#Cc1cccc2cc(O)cc(-c3ncc4c(N5CC6CCC(C5)N6)nc(OCC5(CN6CCC(C(=O)N7CCN(C(=O)C8CCN(Cc9ccc%10c(c9)CN(C(=O)c9cc(C(C)C)c(O)cc9O)C%10)CC8)CC7)CC6)CC5)nc4c3F)c12 [Compound 121] | < 0.1 µM | < 0.1 µM | > 1 µM | > 1 µM | 0.1 to 1 µM | – | – | – | – |
| C#Cc1cccc2cccc(-c3ncc4c(N5CC6CCC(C5)N6)nc(OC[C@@H]5C[C@H](CN6CCN(Cc7ccc8c(c7)CN(C(=O)c7cc(C(C)C)c(O)cc7O)C8)CC6)CN5C)nc4c3F)c12 [Compound 122] | < 0.1 µM | 0.1 to 1 µM | 0.1 to 1 µM | 0.1 to 1 µM | 0.1 to 1 µM | – | – | – | – |
| C#Cc1cccc2cc(O)cc(-c3ncc4c(N5CC6CCC(C5)N6)nc(OC[C@@H]5C[C@H](CN6CCN(Cc7ccc(-n8c(C(=O)NCC(F)(F)F)nnc8-c8cc(C(C)C)c(O)cc8O)cc7)CC6)CN5C)nc4c3F)c12 [Compound 123] | < 0.1 µM | < 0.1 µM | 0.1 to 1 µM | 0.1 to 1 µM | < 0.1 µM | – | – | – | – |
| C#Cc1cccc2cc(O)cc(-c3ncc4c(N5CC6CCC(C5)N6)nc(OCC5(CN6CCN(CC7CCN(c8ccc(-n9c(C(=O)NCC)nnc9-c9cc(C(C)C)c(O)cc9O)cc8)CC7)CC6)CC5)nc4c3F)c12 [Compound 124] | < 0.1 µM | < 0.1 µM | < 0.1 µM | 0.1 to 1 µM | < 0.1 µM | – | – | – | – |
| C#Cc1cccc2cc(O)cc(-c3ncc4c(N5CC6CCC(C5)N6)nc(OCC5(CN6CCN(CC7CCN(Cc8ccc9c(c8)CN(C(=O)c8cc(C(C)C)c(O)cc8O)C9)CC7)CC6)CC5)nc4c3F)c12 [Compound 125] | < 0.1 µM | – | – | – | – | < 0.1 µM | 0.1 to 1 µM | 0.1 to 1 µM | < 0.1 µM |
| C#Cc1cccc2cc(O)cc(-c3ncc4c(N5CC6CCC(C5)N6)nc(OCC5(CN6CCN(CC7CCN(Cc8ccc(-n9c(C(=O)NC(C)C(F)(F)F)nnc9-c9cc(C(C)C)c(O)cc9O)cc8)CC7)CC6)CC5)nc4c3F)c12 (stereo not shown) [Compound 126] | < 0.1 µM | < 0.1 µM | < 0.1 µM | < 0.1 µM | < 0.1 µM | – | – | – | – |
| C#Cc1cccc2cc(O)cc(-c3ncc4c(N5CC6CCC(C5)N6)nc(OCC5(CN6CCN(CC7CCN(Cc8ccc(-n9c(C(=O)NCC(F)(F)F)nnc9-c9cc(C(C)C)c(O)cc9O)cc8)CC7)CC6)CC5)nc4c3F)c12 [Compound 127] | < 0.1 µM | < 0.1 µM | < 0.1 µM | < 0.1 µM | < 0.1 µM | – | – | – | – |
| C#Cc1c(F)ccc2cc(O)cc(-c3ncc4c(N5CC6CCC(C5)N6)nc(OCC5(CN6CCN(C7CCN(Cc8ccc(-n9c(C(=O)NC(C)C(F)(F)F)nnc9-c9cc(C(C)C)c(O)cc9O)cc8)CC7)CC6)CC5)nc4c3F)c12 (stereo not shown) [Compound 160] | – | < 0.1 µM | < 0.1 µM | < 0.1 µM | < 0.1 µM | – | – | – | – |
| C#Cc1cccc2cc(O)cc(-c3ncc4c(N5CC6CCC(C5)N6)nc(OCC5(CN6CCN(CC7CCN(Cc8ccc(-n9c(C(=O)NCC)nnc9-c9cc(C(C)C)c(O)cc9O)cc8)CC7)CC6)CC5)nc4c3F)c12 [Example 2, 4-(4-{[4-({4-[(1-{[(4-{3,8-diazabicyclo[3.2.1]octan-3-yl}-7-(8-ethynyl-3-hydroxynaphthalen-1-yl)-8-fluoropyrido[4,3-d]pyrimidin-2-yl)oxy]methyl}cyclopropyl)methyl]piperazin-1-yl}methyl)piperidin-1-yl]methyl}phenyl)-5-(2,4-dihydroxy-5-isopropylphenyl)-N-ethyl-1,2,4-triazole-3-carboxamide] | – | < 0.1 µM | < 0.1 µM | < 0.1 µM | < 0.1 µM | – | – | – | – |
